Experimental data reported in patent US10905654B2, “Compositions of bakuchiol and methods of making the same” (Unigen, Inc., priority 2005, dated 2021).

What was measured:
COX-1 versus COX-2 = conditions: COX-1 selective inhibitor; cited from earlier work
COX-1 = COX-1 (Homo sapiens, UniProt P23219); assay: COX-1 inhibition, peroxidase activity assay; format: biochemical; conditions: 99% bakuchiol sample, IC50 normalized to enzyme units
Source text: In order to screen for compounds that inhibited COX-1 and COX-2 activity, a high throughput, in vitro assay was developed that utilized the inhibition of the peroxidase activity of both enzymes. (Needleman et al. (1986) Annu Rev Biochem. 55:69). Briefly, the composition or compound being examined was titrated against a fixed amount of COX-1 and COX-2 enzymes. A cleavable, peroxide chromophore was included in the assay to visualize the peroxidase activity of each enzyme in presence of arachidonic acid as a cofactor. Typically, assays were performed in a 96-well format. Each inhibitor, taken from a 10 mg/mL stock solution in 100% DMSO, was tested in triplicate at room temperature using the following range of concentrations: 0, 0.1, 1, 5, 10, 20, 50, 100, and 500 μg/mL. To each well, 150 μL of 100 mM Tris-HCl, pH 7.5 was added along with 10 μL of 22 μM Hematin diluted in tris buffer, 10 μL of inhibitor diluted in DMSO and 25 units of either the COX-1 or COX-2 enzyme. […] The plate was shaken for 10 seconds and then incubated 5 minutes before reading the absorbance at 570 nm. The inhibitor concentration vs. % inhibition was plotted and the IC50 determined by taking the half-maximal point along the isotherm and intersecting the concentration on the X-axis. […]

[1] = biological target: T1, human 5-lipoxygenase (5-LO or 5-LOX) (Homo sapiens, UniProt P09917); assay: Lipoxygenase Inhibition Assay (LTB4 formation, EIA); format: biochemical; conditions: 99% bakuchiol; 5-LOX from human PBML cells, arachidonic acid substrate
T1 construct: 5-LOX was isolated from human PBML cells; endogenous in cells; host or cells: human PBML cells (peripheral blood mononuclear leukocytes)
T1 sequence (P09917 1-674): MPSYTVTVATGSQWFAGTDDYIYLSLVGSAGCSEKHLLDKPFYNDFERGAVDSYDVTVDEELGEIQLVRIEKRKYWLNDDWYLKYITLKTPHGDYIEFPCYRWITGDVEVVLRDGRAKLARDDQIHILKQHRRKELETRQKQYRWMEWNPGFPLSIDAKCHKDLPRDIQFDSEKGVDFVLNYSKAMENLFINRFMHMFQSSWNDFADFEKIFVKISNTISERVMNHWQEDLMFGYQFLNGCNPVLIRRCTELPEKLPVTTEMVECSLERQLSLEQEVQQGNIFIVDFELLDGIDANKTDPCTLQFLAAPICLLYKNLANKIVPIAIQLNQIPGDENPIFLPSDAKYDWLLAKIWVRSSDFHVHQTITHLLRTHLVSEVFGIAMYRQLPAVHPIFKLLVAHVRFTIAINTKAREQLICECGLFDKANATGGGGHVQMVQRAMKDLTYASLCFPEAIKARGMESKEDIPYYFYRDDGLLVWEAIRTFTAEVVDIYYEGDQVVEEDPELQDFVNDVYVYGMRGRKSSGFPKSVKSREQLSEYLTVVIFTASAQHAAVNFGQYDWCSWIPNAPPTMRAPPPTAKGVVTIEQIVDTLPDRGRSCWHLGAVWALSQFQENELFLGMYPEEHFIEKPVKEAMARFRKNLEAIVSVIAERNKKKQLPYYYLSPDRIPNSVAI
Method: As noted above, one of the most important pathways involved in the inflammatory response is produced by non-heme, iron-containing lipoxygenases (5-LOX, 12-LOX, and 15-LOX), which catalyze the oxidation of fatty acids such as AA to produce the hydroperoxides 5-, 12- and 15-HPETE, which are then converted to leukotrienes. A Lipoxygenase Inhibition Assay was carried out using a published method (Carter et al. (1991) J. Pharmacol. Exp. Ther. 256(3):929-937, Safayhi et al. (2000) Planta Medica. 66:110-113). 5-LOX was isolated from human PBML cells and arachidonic acid was utilized as a substrate. The test article and positive control were dissolved in 1% DMSO. HBSS (Hank's balanced salt solution) was used as incubation buffer. Pre-incubation time was 15 minutes at 37° C., followed by 15 min. incubation at the same temperature. This assay detects the formation of LTB4 with EIA quantification. Highly pure bakuchiol (99% bakuchiol, #MH-258-12-08) was tested in duplicate at concentrations of 10 μM, 1 μM, 0.1 μM, and 10 nM relative to a positive control-NDGA at five concentrations. The dose response curve is illustrated in the FIG. 6.

[2] = tested on: Propionibacterium acnes (ATCC 6919); assay: Antimicrobial activity, turbidity; format: cell-based; conditions: 99% pure sample, tested at 0.03-100 μg/mL, 1 day
Method: (§1) The anti-microbial activity of a highly pure bakuchiol sample (99% pure; #MH-258-12-08) was evaluated using published methods (Modugno et al. (1994) Antimicrobial Agents & Chemotherapy 38:2362-2368; Misiek et al. (1973) Antimicrobial Agents & Chemotherapy 3:40-48). Briefly, Staphylococcus epidermidis (Gram Positive. ATCC 12228) was cultured for 20 hours at 37° C. in Mueller-Hinton Broth medium. Propionibacterium acnes (ATCC 6919) was cultured for 2 days at 37° C. in Reinforced Clostridial medium. The test article and positive control were dissolved in 1% DMSO with an incubation volume of 1 mL. The time of assessment was 1 day. Measurement of turbidity was used as the method of quantification. A highly pure bakuchiol sample (99%; #MH-258-12-08) was tested in duplicate at concentrations of 100 μg/mL, 30 μg/mL, 10 μg/mL, 3 μg/mL, 1 μg/mL, 0.3 μg/mL, 0.1 μg/mL and 0.03 μg/mL relative to positive controls-gentamicin at 0.1 μg/mL for Staphylococcus epidermidis and ampicillin at 0.1 μg/mL for Propionibacterium acnes, respectively.

[3] = tested on: Staphylococcus epidermidis (Gram Positive, ATCC 12228); assay: Antimicrobial activity, turbidity; format: cell-based; conditions: 99% pure sample, tested at 0.03-100 μg/mL, 1 day
Method: as §1

[4] = tested on: Trichophyton mentagrophytes (ATCC 9533); assay: Antimicrobial activity; format: cell-based; conditions: 99% pure sample; tested at 0.03-100 μg/mL
[5] = tested on: Epidermophyton floccosum (ATCC 18397); assay: Antimicrobial activity; format: cell-based; conditions: 99% pure sample, tested at 0.03-100 μg/mL
[6] = tested on: Microsporum canis (ATCC 36299); assay: Antimicrobial activity; format: cell-based; conditions: 99% pure sample, tested at 0.03-100 μg/mL
[7] = tested on: Pityrosporum ovale (ATCC 38593); assay: Antimicrobial activity; format: cell-based; conditions: 99% pure sample, tested at 0.03-100 μg/mL
[8] = Acute toxicity, 14-day study in mice; format: in vivo, female ICR mice
Method: […] Forty female ICR mice (Harlan) aged 4-5 weeks old were used for the 14-day study. Mice were administered […] of the acute dose daily, approximately 2 g/kg by weight per test article per day. The first 10 mice received the composition containing 20.7% bakuchiol, while the second group of 10 mice received a composition containing 99% bakuchiol. The UP256 composition was suspended in water and administered through a syringe. Twenty mice were administered water, as the control group. The weights of all mice were measured, including baseline, 3 mid points, and an endpoint. […] Any abnormal health conditions or behavior was recorded over the two-week period. A necropsy of all mice was completed on day 14 and blood from all groups was collected for a complete blood screen. Two mice picked randomly from each of groups also had kidney and liver tissues removed for Histopathology. All blood work and pathology work was completed through Antech Diagnostics.

PTPIB = biological target: T2, PTPIB (Homo sapiens, UniProt P18031); conditions: Kim et al. 2005; cited from earlier work
T2 sequence (P18031 1-435): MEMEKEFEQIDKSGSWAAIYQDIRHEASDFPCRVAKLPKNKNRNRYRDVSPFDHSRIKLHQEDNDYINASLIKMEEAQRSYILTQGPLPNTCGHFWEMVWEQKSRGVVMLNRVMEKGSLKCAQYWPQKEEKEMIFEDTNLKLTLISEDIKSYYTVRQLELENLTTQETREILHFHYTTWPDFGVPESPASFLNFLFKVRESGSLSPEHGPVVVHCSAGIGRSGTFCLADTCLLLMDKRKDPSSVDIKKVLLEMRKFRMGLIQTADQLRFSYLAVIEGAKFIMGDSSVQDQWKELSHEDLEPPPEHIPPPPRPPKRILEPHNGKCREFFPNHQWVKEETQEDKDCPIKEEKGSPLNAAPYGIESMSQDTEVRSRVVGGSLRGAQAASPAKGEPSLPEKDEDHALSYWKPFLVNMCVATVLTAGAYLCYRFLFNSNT

[9] = 20.7% and 99% bakuchiol samples, approximately 2 g/kg per day, 14 days
[10] = UP256 at concentrations of 30% and 70%, oral daily 2 g/kg for 14 days
[11] = day 14, 20.7% and 99% bakuchiol samples, approximately 2 g/kg per day
[12] = two mice per group, approximately 2 g/kg per day, 14 days

COX-1, sequence (P23219 24-599): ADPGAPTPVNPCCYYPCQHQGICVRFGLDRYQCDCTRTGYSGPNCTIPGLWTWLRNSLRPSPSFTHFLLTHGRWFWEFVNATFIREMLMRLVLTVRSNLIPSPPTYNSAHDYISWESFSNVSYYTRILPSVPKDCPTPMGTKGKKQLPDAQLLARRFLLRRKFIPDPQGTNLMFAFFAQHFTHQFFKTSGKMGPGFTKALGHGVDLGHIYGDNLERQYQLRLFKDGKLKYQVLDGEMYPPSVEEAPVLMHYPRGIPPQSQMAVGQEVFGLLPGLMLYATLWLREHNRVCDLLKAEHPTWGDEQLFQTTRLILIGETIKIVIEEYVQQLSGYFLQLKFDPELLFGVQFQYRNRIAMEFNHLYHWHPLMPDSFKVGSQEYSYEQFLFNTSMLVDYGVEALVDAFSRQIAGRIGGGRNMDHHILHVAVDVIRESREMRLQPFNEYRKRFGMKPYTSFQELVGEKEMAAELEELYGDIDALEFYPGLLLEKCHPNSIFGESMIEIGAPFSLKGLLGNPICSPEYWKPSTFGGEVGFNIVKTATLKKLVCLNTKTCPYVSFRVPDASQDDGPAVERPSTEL

In the case of CC(=O)Oc1ccccc1C(=O)O [aspirin], the “effectiveness against COX-1 versus COX-2” value (COX-1 versus COX-2) is given as “more than 150 times”.

With C=C[C@@](C)(/C=C/c1ccc(O)cc1)CCC=C(C)C [UP256, bakuchiol] the IC50 (COX-1) was 2340 nM, the IC50 [1] was 3.41 µM and the “minimum effective concentration (significant inhibition)” value [2] was 1 µg/mL. For the same molecule, the “minimum effective concentration (significant inhibition)” value [3] was 1 µg/mL, the “concentration of moderate inhibition” value [4] was 30 µg/mL and the inhibition [5] was “No inhibition”. For the same molecule, the inhibition ([5]; listed as bakuchiol) was “no inhibition”, the inhibition [6] was “No inhibition” and the inhibition ([6]; listed as bakuchiol) was “no inhibition”. For the same molecule, the inhibition [7] was “No inhibition”, the inhibition ([7]; listed as bakuchiol) was “no inhibition” and the average weight [8, 9] was “continued to increase”. For the same molecule, the food/water consumption [8, 9] was “remained the same”, the “significant difference in behavior versus control mice” value [8, 9] was “Aggression towards the investigator (i.e. biting) and towards each other (i.e. fighting in cage)” and the “adverse effects, fourteen-day study” value [8, 10] was “No adverse effects”. For the same molecule, the “toxicity in major organs tested” value [8, 10] was “no toxicity”, the “adverse effects, fourteen-day study” value ([8]; both purity levels (20% and 99% purity), approximately 2 g/kg per day) was “No adverse effects” and the blood work [8, 11] was “normal relative to the controls”. For the same molecule, the necropsy [8, 11] was “no gross abnormalities or changes in any organ”, the “histopathology, kidney” value [8, 12] was “significant changes were not present” and the “histopathology, liver hepatocyte nuclei” value [8, 12] was “within normal limits”. For the same molecule, the IC50 (PTPIB) was 20.8 µM and the logP (physchem) was 6.13.
